Columns and labels:
Assay type in all cases: in vivo
[1] = system: purple redstem (Ammannia coccinea); assay: Test E flooded paddy water application; details: Flood, 21 days, scale 0 to 100 (0 no effect, 100 complete control)
Procedure, shortened: (§1)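 Response scored visually on a 0–100 scale (100 = complete control) at 21 days against untreated pots. Treatment was into paddy water 3 cm deep over silt loam, with plants at the 2.0–2.5-leaf stage, grown under 16-h light at 29.5/26.7 °C day/night.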

[2] = system: transplanted rice seedlings (Oryza sativa cv. ‘Japonica-M202’); assay: Test E flooded paddy water application; details: Flood, 21 days, scale 0 to 100 (0 no effect, 100 complete control)
Procedure, shortened: as §1

[3] = system: rice flatsedge (Cyperus iria); assay: Test E flooded paddy water application; details: Flood, 21 days, scale 0 to 100 (0 no effect, 100 complete control)
Procedure, shortened: as §1

[4] = system: junglerice (Echinochloa colona); assay: Test E flooded paddy water application; details: Flood, 21 days, scale 0 to 100 (0 no effect, 100 complete control)
Procedure, shortened: as §1

[5] = system: smallflower umbrella sedge (Cyperus difformis); assay: Test E flooded paddy water application; details: Flood, 21 days, scale 0 to 100 (0 no effect, 100 complete control)
Procedure, shortened: as §1

[6] = system: late watergrass (Echinochloa oryzicola); assay: Test E flooded paddy water application; details: Flood, 21 days, scale 0 to 100 (0 no effect, 100 complete control)
Procedure, shortened: as §1

[7] = system: early watergrass (Echinochloa oryzoides); assay: Test E flooded paddy water application; details: Flood, 21 days, scale 0 to 100 (0 no effect, 100 complete control)
Procedure, shortened: as §1

[8] = system: barnyardgrass (Echinochloa crus-galli); assay: Test E flooded paddy water application; details: Flood, 21 days, scale 0 to 100 (0 no effect, 100 complete control)
Procedure, shortened: as §1

[9] = system: bearded (brdd.) sprangletop (Leptochloa fusca ssp. fascicularis); assay: Test E flooded paddy water application; details: Flood, 21 days, scale 0 to 100 (0 no effect, 100 complete control)
Procedure, shortened: as §1

[10] = system: ducksalad (Heteranthera limosa); assay: Test E flooded paddy water application; details: Flood, 21 days, scale 0 to 100 (0 no effect, 100 complete control)
Procedure, shortened: as §1

[11] = system: water seeded rice seedlings (Oryza sativa cv. ‘Japonica-M202’); assay: Test E flooded paddy water application; details: Flood, 21 days, scale 0 to 100 (0 no effect, 100 complete control)
Procedure, shortened: as §1

[12] = system: redroot pigweed (Amaranthus retroflexus); assay: Test A pre/postemergence
Procedure, shortened: (§2)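 Visual injury scores on a 0–100 scale, 100 being complete control, were assigned roughly ten days after treatment by comparison with untreated greenhouse controls. Test chemicals, formulated with surfactant in non-phytotoxic solvent, were sprayed onto soil preemergence and onto 1–2-leaf plants 2–10 cm tall postemergence.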

[13] = system: velvetleaf (Abutilon theophrasti); assay: Test A pre/postemergence
Procedure, shortened: as §2

[14] = system: morningglory (Ipomoea spp.); assay: Test A pre/postemergence
Procedure, shortened: as §2

[15] = system: giant foxtail (Setaria faberi); assay: Test A pre/postemergence
Procedure, shortened: as §2

[16] = system: barnyardgrass (Echinochloa crus-galli); assay: Test A pre/postemergence
Procedure, shortened: as §2

[17] = system: crabgrass (Digitaria sanguinalis); assay: Test A pre/postemergence
Procedure, shortened: as §2

[18] = Postemergence, 125 g ai/ha, 0 to 100 scale (0 no effect, 100 complete control)
[19] = Postemergence, 500 g ai/ha, 0 to 100 scale (0 no effect, 100 complete control)
[20] = Preemergence, 125 g ai/ha, 0 to 100 scale where 0 is no effect and 100 is complete control, approximately ten days
[21] = Preemergence, 500 g ai/ha, 0 to 100 scale where 0 is no effect and 100 is complete control, approximately ten days

CCOC(=O)c1nc(-c2ccc(Cl)c(Cl)c2)nc(N)c1Br [Compound 66]
Redstem plant response rating ([1]; 32 g ai/ha): 0 | Redstem plant response rating ([1]; 64 g ai/ha): 0 | Redstem plant response rating ([1]; 125 g ai/ha): 40 | Redstem plant response rating ([1]; 250 g ai/ha): 100 | Plant response rating, Redstem ([1]; 16 g ai/ha): 0 | Rice, Transplanted plant response rating ([2]; 32 g ai/ha): 0 | Rice, Transplanted plant response rating ([2]; 64 g ai/ha): 0 | Rice, Transplanted plant response rating ([2]; 125 g ai/ha): 0 | Rice, Transplanted plant response rating ([2]; 250 g ai/ha): 0 | Plant response rating, Rice, Transplanted ([2]; 16 g ai/ha): 0 | Flatsedge, Rice plant response rating ([3]; 32 g ai/ha): 0 | Flatsedge, Rice plant response rating ([3]; 64 g ai/ha): 0 | Flatsedge, Rice plant response rating ([3]; 125 g ai/ha): 0 | Flatsedge, Rice plant response rating ([3]; 250 g ai/ha): 0 | Plant response rating, Flatsedge, Rice ([3]; 16 g ai/ha): 0 | Junglerice plant response rating ([4]; 32 g ai/ha): 0 | Junglerice plant response rating ([4]; 64 g ai/ha): 0 | Junglerice plant response rating ([4]; 125 g ai/ha): 0 | Junglerice plant response rating ([4]; 250 g ai/ha): 0 | Plant response rating, Junglerice ([4]; 16 g ai/ha): 0 | Sedge, Umbrella plant response rating ([5]; 32 g ai/ha): 0 | Sedge, Umbrella plant response rating ([5]; 64 g ai/ha): 0 | Sedge, Umbrella plant response rating ([5]; 125 g ai/ha): 0 | Sedge, Umbrella plant response rating ([5]; 250 g ai/ha): 0 | Plant response rating, Sedge, Umbrella ([5]; 16 g ai/ha): 0 | Watergrass, Late plant response rating ([6]; 32 g ai/ha): 0 | Watergrass, Late plant response rating ([6]; 64 g ai/ha): 0 | Watergrass, Late plant response rating ([6]; 125 g ai/ha): 0 | Watergrass, Late plant response rating ([6]; 250 g ai/ha): 0 | Plant response rating, Watergrass, Late ([6]; 16 g ai/ha): 0 | Watergrass, Early plant response rating ([7]; 32 g ai/ha): 0 | Watergrass, Early plant response rating ([7]; 64 g ai/ha): 0 | Watergrass, Early plant response rating ([7]; 125 g ai/ha): 0 | Watergrass, Early plant response rating ([7]; 250 g ai/ha): 0 | Plant response rating, Watergrass, Early ([7]; 16 g ai/ha): 0 | Barnyardgrass plant response rating ([8]; 32 g ai/ha): 0 | Barnyardgrass plant response rating ([8]; 125 g ai/ha): 0 | Barnyardgrass plant response rating ([8]; 250 g ai/ha): 35 | Plant response rating, Barnyardgrass ([8]; 16 g ai/ha): 0 | Sprangletop, Brdd. plant response rating ([9]; 32 g ai/ha): 0 | Sprangletop, Brdd. plant response rating ([9]; 64 g ai/ha): 0 | Sprangletop, Brdd. plant response rating ([9]; 125 g ai/ha): 0 | Sprangletop, Brdd. plant response rating ([9]; 250 g ai/ha): 0 | Plant response rating, Sprangletop, Brdd. ([9]; 16 g ai/ha): 0 | Ducksalad plant response rating ([10]; 32 g ai/ha): 100 | Ducksalad plant response rating ([10]; 64 g ai/ha): 100 | Ducksalad plant response rating ([10]; 125 g ai/ha): 100 | Ducksalad plant response rating ([10]; 250 g ai/ha): 100 | Plant response rating, Ducksalad ([10]; 16 g ai/ha): 95 | Rice, Water Seeded plant response rating ([11]; 32 g ai/ha): 0 | Rice, Water Seeded plant response rating ([11]; 64 g ai/ha): 0 | Rice, Water Seeded plant response rating ([11]; 125 g ai/ha): 0 | Rice, Water Seeded plant response rating ([11]; 250 g ai/ha): 0 | Plant response rating, Rice, Water Seeded ([11]; 16 g ai/ha): 0 | Plant response rating, Pigweed [12, 18]: 50 | Plant response rating, Pigweed [12, 19]: 65 | Plant response rating, Pigweed [12, 20]: 0 | Plant response rating, Pigweed [12, 21]: 10 | Plant response rating, Velvetleaf [13, 18]: 50 | Plant response rating, Velvetleaf [13, 19]: 75 | Plant response rating, Velvetleaf [13, 20]: 0 | Plant response rating, Velvetleaf [13, 21]: 35 | Plant response rating, Morningglory [14, 18]: 20 | Plant response rating, Morningglory [14, 19]: 30 | Plant response rating, Morningglory [14, 20]: 0 | Plant response rating, Morningglory [14, 21]: 0 | Plant response rating, Foxtail, Giant [15, 18]: 0 | Plant response rating, Foxtail, Giant [15, 19]: 0 | Plant response rating, Foxtail, Giant [15, 20]: 0 | Plant response rating, Foxtail, Giant [15, 21]: 0 | Plant response rating, Barnyardgrass [16, 18]: 0 | Plant response rating, Barnyardgrass [16, 19]: 0 | Plant response rating, Barnyardgrass [16, 20]: 0 | Plant response rating, Barnyardgrass [16, 21]: 0 | Plant response rating, Crabgrass [17, 18]: 0 | Plant response rating, Crabgrass [17, 19]: 0 | Plant response rating, Crabgrass [17, 20]: 0 | Plant response rating, Crabgrass [17, 21]: 15

— US8802597B2, “Herbicidal pyrimidines” (E I du Pont de Nemours and Company, priority 2003, dated 2014)
